The values below come from patent US20240139190A1, “NOVEL ANTIPARASITIC COMPOUNDS AND METHODS” (The Board of Regents of The University of Texas System, priority 2019, published 2024).

Assay [1] concerns the target T1, purified porcine tubulin (Sus scrofa, UniProt P02550+P02554).
T1 construct: purchased Cytoskeleton, Inc. T240
Description: Fluorescent microtubule assembly assay. It counts as biochemical. Particulars: mammalian tubulin, fluorescence micrographs. As for the experimental part: (§1) To determine the selectivity of MMV676477, purified porcine tubulin was exposed to a serial dilution of the drug (0 to 25 μM) and absorbance was measured at 340 nm over time. […] To ensure that the absorbance seen at 340 nm reflected microtubule formation and not precipitation, a fluorescent microtubule assembly assay was employed.

The target of assay [2] is purified L. tarentolae tubulin (Leishmania tarentolae, UniProt A0A640KCM0+A0A640KQN0). As to the kind of experiment: Tubulin polymerization turbidity assay, Leishmania tubulin. It counts as biochemical. As for the experimental part:
L. tarentolae (Parrot strain from ATCC) tubulin was purified. Briefly, promastigotes of L. tarentolae were grown to a high density (˜1×10^8 cells/mL), harvested, and resuspended in PME+P buffer containing 100 mM piperazine N, N′-bis (2-ethanesulfonic acid) (PIPES) buffer (pH 6.9), 1 mM glycol ether diamine tetraacetic acid (EGTA), 1 mM MgCl2, 1 mM benzamidine, 0.5 mM phenylmethylsulfonyl fluoride, 25 μg/ml leupeptin. The resulting suspension was extensively sonicated on ice with a probe sonicator (Misonix), cooled on ice for 30 minutes and centrifuged at 40,000×g for 1 hour at 4° C. using an ultracentrifuge (Beckman, Fullerton, CA). The resulting supernatant was filtered through a glass wool or 0.45-micron filter before loading into an equilibrated DEAE-Sepharose Fast Flow matrix (Amersham Biosciences). The column was washed with two column volumes of PME+P and subsequently four column volumes PME+P containing 0.1 M KCl and 0.25 M glutamate (pH 6.9). Tubulin was eluted with two column volumes PME+P containing 0.3 M KCl and 0.75 M glutamate (pH 6.9), and tubulin-rich fractions were confirmed by tubulin polymerization assays. The assembly-competent tubulin was pooled together and diluted into 1×PME buffer, 2 mM GTP, 10 mM MgCl2 and 8% DMSO (v/v). Tubulin was incubated in this buffer for 45 minutes at 30° C. to promote assembly, centrifuged at 50,000×g at 30° C. for 30 min, and re-suspended in 1 mL of ice-cold PME. […] Purity was assessed by SDS-PAGE and Coomassie Blue.
Tubulin polymerization assays were performed in 96-well half-area microplates (Costar) in a final volume of 100 μL. […] The absorbance at 340 nm was recorded in a Synergy H1 microplate reader (BioTek) for up to 45 min at 37° C. […]
To determine whether MMV676477 directly regulates microtubule assembly, assembly-competent tubulin from Leishmania tarentolae was purified and analyzed (FIG. 5A). […] 3 mg/mL purified L. tarentolae tubulin (3 mg/mL) was treated with serial dilutions of MMV676477 while the absorbance was measured at 340 nm over time.

The subject of assay [3] is L. amazonensis axenic amastigotes. As to the kind of experiment: alamarBlue viability / concentration-response assay, axenic amastigotes. It counts as cell-based, Leishmania amazonensis. Particulars: Leishmania amazonensis, 72 h, L. amazonensis, stage not stated; read-out: EC50^72 h for La. As to the method:
Leishmania amazonensis axenic amastigotes (100 μL, 2×10^6 cells/mL) were added to 96-multiwell plates containing 100 μL of amastigote culture medium with an appropriate compound dilution series. 0.1% DMSO (no drug) served as a positive control (100%), and 5 μM amphotericin B served as a negative growth control (0%). Only internal wells were used to minimize edge effects from evaporation. Axenic amastigotes were incubated at 32° C. with a compound/drug for 72 h prior to measurement. Similarly, the cytotoxicity of each compound was determined against RAW 264.7 cells and HepG2 cell lines, following 72 h incubation at 37° C. (promastigotes at 26° C.).
10% alamarBlue® (Thermo Fisher Scientific) was used to measure the growth of both parasite and mammalian cells. Conversion from a blue oxidized state to a pink reduced state was assessed visually at 6 hr. The fluorescence signal was measured with a BioTek Synergy H1 plate reader (530 nm excitation, 570 nm emission). For bioluminescence assays using L. amazonensisluc, relative luminescence units (RLU) were measured using Britelite Plus (PerkinElmer, USA). Luminescence produced by this luciferase reaction is proportional to the amount of luciferase-expressing, viable L. amazonensisluc. Following five-minute incubation at room temperature, the luminescence was measured with a BioTek Synergy H1 plate reader.
All experiments were conducted as three technical triplicates on the same plate, with at least three independent biological repeats of each plate performed. For all assays, percent growth was expressed as a proportion of the untreated (positive) control (i.e. 100%) and plotted against drug/compound concentration. The concentration was then log10 transformed and EC50 values were determined using nonlinear regression (sigmoidal dose-response/variable slope equation) in GraphPad Prism v5.0 (GraphPad Software, Inc., San Diego, CA).
To identify antileishmanial compounds, a microplate-based alamarBlue® assay was used to quickly triage the 400 drug-like compounds available in the MMV Pathogen Box collection. […] A three-step process was used to screen the Pathogen Box: 1) identify hits against axenic amastigotes, 2) confirm the inhibitory concentrations of these hits against axenic amastigotes, 3) evaluate hits for potency against intracellular parasites using fluorescence and bioluminescence-based intracellular assays. The MMV Pathogen Box resource was tested at two concentrations (5 μM and 1 μM, 72 h endpoint) on axenic amastigotes.
Hits were defined as compounds that, at a concentration of 1 μM, decreased the relative fluorescence intensity signal to ≤70% of that produced by parasites incubated in vehicle (0.06% DMSO) only (FIG. 9).
For orientation: The colour change of resazurin is a common sign of viable cells or microbes.

Assay [4] deals with T1, purified porcine tubulin. Description: Tubulin polymerization turbidity assay, mammalian tubulin. Format: biochemical. As for the experimental part:
Tubulin polymerization assays were performed in 96-well half-area microplates (Costar) in a final volume of 100 μL. Briefly, Leishmanial or porcine tubulin (>99% pure, Cat. #T240, Cytoskeleton, Inc.) in 50 μL volume was pre-treated with drugs on ice for 5 minutes before adding 50 μL ice cold buffer, to provide a final concentration of 3 mg/ml tubulin in 80 mM PIPES pH 6.9, 2 mM MgCl2, 0.5 mM EGTA, 1 mM GTP, and 1% DMSO unless specified otherwise. The absorbance at 340 nm was recorded in a Synergy H1 microplate reader (BioTek) for up to 45 min at 37° C. (porcine tubulin) or 30° C. (L. tarentolae tubulin).
as §1

Assay [5] concerns cellular tubulin of L. amazonensis. As to the kind of experiment: Polymerized vs. unpolymerized tubulin in parasites (differential centrifugation, western blot). Particulars: 24 h at EC50^72 h, densitometry. It counts as cell-based, Leishmania amazonensis. The source says: (§2) One reason why MMV676477 might affect parasite cell division is that, like paclitaxel, it might affect microtubule polymerization, either directly or indirectly. The degree to which MMV676477 affected microtubules polymerization in cells was examined. […] Centrifugation of these extracts allowed separation of insoluble polymeric (pellet) and soluble dimeric (supernatant) tubulin. […] The intensity of α-tubulin staining was examined by normalizing it to the intensity of a membrane protein (gp46 for promastigotes in FIG. 4D; p8 for amastigotes in FIG. 4E).

Assay [6] relates to L. amazonensis promastigotes and amastigotes. Description: Tubulin intensity by confocal immunofluorescence microscopy. Particulars: 24 h at EC50^72 h. Format: cell-based, Leishmania amazonensis. As to the method:
Promastigotes or amastigotes were treated with the indicated compound concentrations and allowed to adhere to poly-L-lysine coated plates. All cells were fixed with 4% paraformaldehyde and permeabilized/blocked with 0.01% Triton X-100 and 2% BSA in PBS. Promastigotes and amastigotes were incubated with mouse anti-gp46 or anti-p8, respectively at 1:50 or 1:1000 and rat anti-alpha-tubulin antibody at 1:1000. Samples were then probed with A568 anti-mouse and […] secondary antibodies (Molecular Probes). DNA was labeled with Hoescht. Samples were visualized on a Zeiss LSM 880 Inverted confocal Airyscan microscope at 63×; full Z-thicknesses through parasites were obtained. […] For microscopic analysis of mitotic arrest, at least 200 parasites were analyzed per condition per experiment after 48 hrs incubation at compounds' EC50, and the average plus standard error for three experiments was calculated. Representative images were selected from the maximal intensity projections and linearly processed in Adobe Photoshop CS6.
as §2

As usually defined, the EC50 is the concentration at which the effect is half-maximal. Regarding `CC(=O)O[C@H]1C(=O)[C@@]2(C)[C@H]([C@H](OC(=O)c3ccccc3)[C@]3(O)C[C@H](OC(=O)[C@H](O)[C@@H](NC(=O)c4ccccc4)c4ccccc4)C(C)=C1C3(C)C)[C@]1(OC(C)=O)CO[C@@H]1C[C@@H]2O` [paclitaxel], in assay [1], the “microtubules formed vs control” value is “many more microtubules were formed”. The concentration for a half-maximal effect (EC50) was 1.3 µM in assay [2]; 0.76 µM in assay [3]; 1.5 ± 0.2 µM in assay [4] (3 mg/ml tubulin, 1% DMSO, A340). Also, in assay [4] (mammalian tubulin), the “Maximum absorbance (A340, 10% DMSO)” value was found to be 0.36. Besides, in assay [5], the “proportion of cellular polymeric tubulin” value is “significantly increased the proportion of cellular polymeric tubulin”. Further, the “tubulin intensity over control (DMSO-treated)” value in assay [6] is on record as “significant two-fold increase in tubulin intensity”.
